Tests used:
[1] = tested on: TyrRS; assay: Immunostaining of neuronal TyrRS under neurotoxic agents (NMDA, MPP+); format: cell-based, rat; settings: neurotoxic agent alone (50 μM NMDA, 100 μM MPP+), 4 hours
[2] = target: T1, TyrRS (Homo sapiens, UniProt P54577); settings: low dose ≤5 μM, HeLa cells; cited from earlier work
T1 construct: host or cells: HeLa cells

[3] = tested on: ataxia telangiectasia mutated (ATM) kinase; settings: low dose 5 μM; cited from earlier work
[4] = target: T2, TyrRS (Rattus norvegicus, UniProt Q4KM49); assay: Immunostaining of neuronal TyrRS, RSV alone or in combination with Aβ; format: cell-based; settings: Aβ 50 nM alone, 16 hours
T2 construct: Primary cortical neuron cultures were obtained from E18 Sprague Dawley rats' cortices; endogenous in cells; host or cells: rat primary cortical neurons (E18 Sprague Dawley)
T2 sequence (Q4KM49 1-528): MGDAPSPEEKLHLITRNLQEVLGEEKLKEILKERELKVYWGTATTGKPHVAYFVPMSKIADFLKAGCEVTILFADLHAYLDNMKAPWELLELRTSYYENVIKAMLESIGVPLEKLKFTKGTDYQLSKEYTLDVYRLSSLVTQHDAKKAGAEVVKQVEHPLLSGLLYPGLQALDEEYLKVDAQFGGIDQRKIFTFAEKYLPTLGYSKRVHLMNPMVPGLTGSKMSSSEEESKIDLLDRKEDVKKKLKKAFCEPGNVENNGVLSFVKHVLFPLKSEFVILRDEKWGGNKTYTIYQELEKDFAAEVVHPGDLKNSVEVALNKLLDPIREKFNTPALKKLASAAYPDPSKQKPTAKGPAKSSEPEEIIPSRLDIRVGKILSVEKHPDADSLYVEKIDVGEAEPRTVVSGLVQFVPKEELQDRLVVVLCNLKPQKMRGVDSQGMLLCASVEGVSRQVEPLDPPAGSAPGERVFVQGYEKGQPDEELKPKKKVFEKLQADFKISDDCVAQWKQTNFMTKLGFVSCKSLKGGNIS

[5] = tested on: TyrRS; assay: Immunoblot for TyrRS after treatment with Aβ42; format: cell-based, rat; settings: different doses of Aβ42, 24 hours
Procedure: (§1) Representative immunostaining images (scale bar, 20 μm) for neuronal TyrRS (spectral images) after treatment with neurotoxic agents result in TyrRS downregulation. […] The protein level of TyrRS was quantified by measuring the average intensity of fluorescence staining with regions defined by MAP2 (neurite marker) staining across n=3 experiments using n≥20 neurons for quantification per treatment condition. […] Rat cortical neurons (DIV 9) were treated with different doses of Aβ42 for 24 hours. All graphical representations depict mean±SEM from n=3 experiments with statistical significance calculated using paired Student's t-test.
(§2) Cultured neurons (DIV 9-10) were washed once with cold 1×PBS and lysed in cell lysis buffer (20 mM Tris-HCl (pH 7.5), 150 mM NaCl, 1 mM Na2EDTA, 1 mM EGTA, 1% Triton, 2.5 mM sodium pyrophosphate, 1 mM beta-glycerophosphate, 1 mM Na3VO4, 1 μg/ml leupeptin supplemented with protease inhibitor). The lysates were centrifuged at 10,000 RPM for 15 minutes at 4° C. to separate the chromatin-bound and soluble fractions. Lysates were quantified using Bio-Rad Protein Assay, and an equal amount of protein was loaded onto a 4 to 12% gradient gel (NuPAGE-Invitrogen). […] Quantification for the western blots was done using ImageJ (Version 1.53c).

[6] = tested on: phenyl-tRNA synthetase beta (PheRSβ); assay: Immunoblot for PheRSβ after treatment with Aβ42; format: cell-based, rat; settings: different doses of Aβ42, 24 hours
Procedure: as §1, §2

[7] = tested on: pSer10-H3; assay: Immunostaining of pSer10-H3 (ADP-ribosylation dependent DNA repair marker); format: cell-based, rat; settings: Aβ 50 nM, 24 hours
Source text: Ac-K56-H3 is a marker of genomic stability, see Driscoll, R., Hudson, A. & Jackson, S. P. Yeast Rtt109 promotes genome stability by acetylating histone H3 on lysine 56. Science 315, 649-652, doi:10.1126/science.1135862 (2007), and DNA damage, see Tjeertes, J. V., Miller, K. M. & Jackson, S. P. Screen for DNA-damage-responsive histone modifications identifies H3K9Ac and H3K56Ac in human cells. EMBO J 28, 1878-1889, doi:10.1038/emboj.2009.119 (2009), and inhibition of PARP1 causes the downregulation of RAD51, see Hegan, D. C. et al. Inhibition of poly(ADP-ribose) polymerase down-regulates BRCA1 and RAD51 in a pathway mediated by E2F4 and p130. Proc Natl Acad Sci U S A 107, 2201-2206, doi:10.1073/pnas.0904783107 (2010), and induces neurotoxicity, see Diaz-Hernandez, J. I., Moncada, S., Bolanos, J. P. & Almeida, A. Poly(ADP-ribose) polymerase-1 protects neurons against apoptosis induced by oxidative stress. Cell Death Differ 14, 1211-1221, doi:10.1038/sj.cdd.4402117 (2007) and Midorikawa, R., Takei, Y. & Hirokawa, N. KIF4 motor regulates activity-dependent neuronal survival by suppressing PARP-1 enzymatic activity. Cell 125, 371-383, doi:10.1016/j.cell.2006.02.039 (2006). […] The western blot images of the protein levels of HPF1 was quantified using ImageJ.
Coverslips were then mounted using DAPI (4′,6-diamidino-2-phenylindole)-supplemented mounting medium, Prolong Gold Antifade (Invitrogen) imaged with Leica DMI6000 epifluorescent microscope at 63×magnification.

T1 sequence (P54577 whole entry): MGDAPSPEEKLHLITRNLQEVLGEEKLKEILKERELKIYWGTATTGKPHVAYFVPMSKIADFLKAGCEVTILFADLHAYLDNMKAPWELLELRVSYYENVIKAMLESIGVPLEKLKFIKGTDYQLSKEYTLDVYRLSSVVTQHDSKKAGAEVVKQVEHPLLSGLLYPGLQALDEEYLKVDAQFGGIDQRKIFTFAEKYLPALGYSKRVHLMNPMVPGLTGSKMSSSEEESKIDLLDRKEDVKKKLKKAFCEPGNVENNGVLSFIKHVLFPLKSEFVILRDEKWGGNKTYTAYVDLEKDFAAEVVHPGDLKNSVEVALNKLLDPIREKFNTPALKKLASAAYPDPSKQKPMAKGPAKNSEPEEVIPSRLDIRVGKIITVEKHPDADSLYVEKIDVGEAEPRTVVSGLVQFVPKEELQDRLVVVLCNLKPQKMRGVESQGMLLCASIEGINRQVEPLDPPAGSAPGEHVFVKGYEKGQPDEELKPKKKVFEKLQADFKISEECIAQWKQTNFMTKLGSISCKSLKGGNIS

C[n+]1ccc(-c2ccccc2)cc1 [MPP^+, 1-methyl-4-phenylpyridinium]
neuronal protein levels of TyrRS [1]: downregulate the neuronal protein levels of TyrRS

CN[C@H](CC(=O)O)C(=O)O [NMDA, N-Methyl-D-aspartate]
neuronal protein levels of TyrRS [1]: downregulate the neuronal protein levels of TyrRS

Oc1ccc(C=Cc2cc(O)cc(O)c2)cc1 [RSV, Resveratrol]
protein levels of TyrRS [2]: upregulated the protein levels of TyrRS
ATM kinase activation [3]: activate

human amyloid β protein fragment 1-42 [Aβ]
TyrRS protein levels [4]: downregulation
TyrRS protein level (immunoblot) [5]: downregulates TyrRS in a dose-dependent manner
PheRSβ protein level (immunoblot) [6]: did not downregulate
pSer10-H3 levels [7]: upregulation

Reference: patent US20240342111A1, “ISOMER-SPECIFIC NEUROPROTECTIVE EFFECT OF NATURAL RESERVATROL” (priority 2021, published 2024)
